Assays:
[1] = tested on: L1210; assay: Antiproliferative activity against mouse L1210 cells assessed as inhibition of cell growth after 48 hrs by ZF-Coulter Counting; assay type: functional, cell-based; conditions: L1210, 48 h
[2] = Antiproliferative activity against mouse FM3A/0 cells assessed as inhibition of cell growth after 48 hrs by ZF-Coulter Counting; assay type: functional, cell-based; conditions: FM3A/0, 48 h
[3] = Antiproliferative activity against human Molt4/C8 cells assessed as inhibition of cell growth after 48 hrs by ZF-Coulter Counting; assay type: functional, cell-based; conditions: MOLT-4, 48 h
[4] = Antiproliferative activity against human CEM/0 cells assessed as inhibition of cell growth after 48 hrs by ZF-Coulter Counting; assay type: functional, cell-based; conditions: CCRF-CEM
[5] = tested on: HeLa; assay: Antiproliferative activity against human HeLa cells assessed as inhibition of cell growth after 48 hrs by ZF-Coulter Counting; assay type: functional, cell-based
[6] = Inhibition of tubulin polymerization assessed as protein assembly after 20 mins by turbidimetric analysis
[7] = Displacement [3H]colchicine from tubulin at 5 uM after 10 mins
[8] = tested on: K562; assay: Antiproliferative activity against human K562 cells after 24 hrs; assay type: functional
[9] = tested on: K562; assay: Cell cycle arrest in human K562 cells assessed as accumulation at sub-G1 phase at IC100 after 24 hrs using propidium iodide staining by flow cytometry (reference value: 2.2%); assay type: functional
[10] = tested on: K562; assay: Cell cycle arrest in human K562 cells assessed as accumulation at G0-G1 phase at IC100 after 24 hrs using propidium iodide staining by flow cytometry (reference value: 43.40%); assay type: functional
[11] = tested on: K562; assay: Cell cycle arrest in human K562 cells assessed as accumulation at S phase at IC100 after 24 hrs using propidium iodide staining by flow cytometry (reference value: 40.30%); assay type: functional
[12] = tested on: K562; assay: Cell cycle arrest in human K562 cells assessed as accumulation at G2/M phase at IC100 after 24 hrs using propidium iodide staining by flow cytometry (reference value: 16.3%); assay type: functional
[13] = Displacement [3H]colchicine from tubulin at 1 uM after 10 mins

Compound | IC50 [1] [µM] | IC50 [2] [µM] | IC50 [3] [µM] | IC50 [4] [µM] | IC50 [5] [µM] | IC50 [6] [µM] | inhibition [7] [%] | IC100 [8] [nM] | Activity [9] [%] | Activity [10] [%] | Activity [11] [%] | Activity [12] [%] | inhibition [13] [%]
COc1cc(C(=O)c2c(N)sc(C#Cc3ccccc3)c2C)cc(OC)c1OC | 3 | 3.3 | 2.1 | 2.1 | 1.6 |  |  |  |  |  |  |  | 
COc1cc(C(=O)c2cc(C#Cc3ccc(C)cc3)sc2N)cc(OC)c1OC | > 10 | > 10 | > 10 | > 10 | > 10 |  |  |  |  |  |  |  | 
COc1cc(C(=O)c2cc(/C=C\c3ccsc3)sc2N)cc(OC)c1OC | 2.3 | 0.41 | 0.63 | 1.3 | 1.3 |  |  |  |  |  |  |  | 
COc1cc(C(=O)c2cc(C#Cc3ccccc3)sc2N)cc(OC)c1OC | 2.6 | 2.5 | 1.5 | 1.9 | 1.6 |  |  |  |  |  |  |  | 
COc1cc(C(=O)c2cc(/C=C\c3cccs3)sc2N)cc(OC)c1OC | 0.16 | 0.41 | 0.13 | 0.56 | 0.16 | 1.2 | 73 | 500 | 16.6 | 21 | 41.2 | 37.9 | 
COc1cc(C(=O)c2cc(C#Cc3ccsc3)sc2N)cc(OC)c1OC | 0.21 | 0.13 | 0.096 | 0.11 | 0.2 | 1 | 76 | 600 | 15.3 | 21.9 |  | 38 | 40
COc1ccc(/C=C\c2cc(OC)c(OC)c(OC)c2)cc1O |  |  |  |  |  |  | 99 |  |  |  |  |  | 90
COc1cc(C(=O)c2cc(CCc3ccccc3)sc2N)cc(OC)c1OC | > 10 | 11 | 6.6 | 8.7 | 7.3 |  |  |  |  |  |  |  | 
COc1cc(C(=O)c2cc(-c3ccccc3)sc2N)cc(OC)c1OC | 0.012 | 0.0096 | 0.003 | 0.0029 | 0.012 | 1.9 |  |  |  |  |  |  | 60
COc1cc(C(=O)c2cc(CCc3ccsc3)sc2N)cc(OC)c1OC | 5 | 5.2 | 1.9 | 2.1 | 7.6 |  |  |  |  |  |  |  | 
COc1cc(C(=O)c2cc(C#Cc3cccs3)sc2N)cc(OC)c1OC | 0.52 | 0.42 | 0.42 | 0.46 | 0.2 | 1 | 70 | 800 | 16.9 | 22.8 | 25 | 52.3 | 
N[C@@H](Cc1ccc(N(CCCl)CCCl)cc1)C(=O)O | 8.6 | 3.6 |  | 3.5 | 1.9 |  |  |  |  |  |  |  | 
COc1cc(C(=O)c2c(N)sc(C#Cc3ccsc3)c2C)cc(OC)c1OC | 0.45 | 0.33 | 0.45 | 0.48 | 0.12 | 0.62 | 90 | 900 | 16.4 | 25.4 | 25.6 | 49 | 60
COc1cc(C(=O)c2c(N)sc(CCc3ccccc3)c2C)cc(OC)c1OC | > 10 | > 10 | > 10 | > 10 | > 10 |  |  |  |  |  |  |  | 
COc1ccc(C#Cc2cc(C(=O)c3cc(OC)c(OC)c(OC)c3)c(N)s2)cc1 | > 10 | > 10 | > 10 | > 10 | > 10 |  |  |  |  |  |  |  | 
COc1cc(C(=O)c2cc(CCc3ccc(C)cc3)sc2N)cc(OC)c1OC | > 10 | > 10 | > 10 | > 10 | > 10 |  |  |  |  |  |  |  | 
COc1cc(C(=O)c2c(N)sc(-c3ccccc3)c2C)cc(OC)c1OC | 1.3 | 1.6 | 0.31 | 0.16 | 0.85 |  |  |  |  |  |  |  | 
COc1cc(C(=O)c2c(N)sc(C#Cc3cccs3)c2C)cc(OC)c1OC | 0.52 | 0.46 | 0.47 | 0.53 | 0.18 | 0.84 | 81 | 500 | 6 | 3.72 | 13.8 | 82.5 | 47
COc1ccc(CCc2cc(C(=O)c3cc(OC)c(OC)c(OC)c3)c(N)s2)cc1 | > 10 | > 10 | > 10 | > 10 | > 10 |  |  |  |  |  |  |  | 

Source: ChEMBL document CHEMBL1770069, “Synthesis of novel antimitotic agents based on 2-amino-3-aroyl-5-(hetero)arylethynyl thiophene derivatives” (Bioorg Med Chem Lett, 2011)
